Test results from US20160287615A1, “NOVEL ENCAPSULATION OF FLUORESCENT, PHOTO-SENSITIVE, OR OXYGEN-SENSITIVE ACTIVE INGREDIENT FOR TOPICAL APPLICATION” (BioPharmX, Inc., priority 2015, published 2016).
Where a name gives a salt, the structure may show the parent alone.

Columns and labels:
[1] = Fluorescence microscopy of compositions under UV fluorescent lamp illumination; format: physicochemical; conditions: 450 nm excitation wavelength
Description: FIGS. 4a and 4b are images of the fluorescence given off by different compositions in response to illumination with a UV fluorescent lamp. The images of FIGS. 4a and 4b were captured using a digital camera connected to a microscope.
FIGS. 5a and 5b are images of the fluorescence given off by different compositions in response to illumination with a UV fluorescent lamp. The images of FIGS. 5a and 5b were captured using a digital camera connected to a microscope.
The composition includes minocycline contained in a plurality of Mg2CO3 tubular microparticles with a concentration of 1:100 of minocycline to Mg2CO3 tubular microparticles (10 milligrams of minocycline per gram of Mg2CO3 tubular microparticles).
The composition shown in FIG. 4b was made by dissolving minocycline HCl in methyl alcohol at a concentration of 10 mg/ml. A plurality of tubular microparticles comprising Mg2CO3 was added to the solution. Microscope slides were prepared with minocycline HCl (shown in FIG. 4a) and the prepared composition with a plurality of tubular microparticles described in this paragraph (shown in FIG. 4b).
Fluorescence can be an indicator of photo-initiated degradation of some antibiotics, including minocycline.

[2] = 10 h
Description: Additional data was collected with a high performance liquid chromatography (HPLC) machine for two samples. The first sample was minocycline HCl and the second sample comprised a plurality of microparticles that contained minocycline HCl. […] Following exposure of both samples to ultraviolet illumination for 10 hours, an HPLC machine was used to assess the level of degradation of the minocycline active ingredient in both samples.

CN(C)c1ccc(O)c2c1C[C@H]1C[C@H]3[C@H](N(C)C)C(O)=C(C(N)=O)C(=O)[C@@]3(O)C(O)=C1C2=O [minocycline HCl]
fluorescence emission wavelength [1]: approximately 670 nm
fluorescence observed by fluorescence microscopy ([1]; UV fluorescent lamp illumination, microscope magnification at 10 times): showed fluorescence emission
degradation of the minocycline active ingredient [2]: 4.3%
